Laboratory results reported in patent US5700779A (Cortech, Inc., priority 1996, dated 1997).
“And” between values parts separate entries of the source, which are not always exact repeats. Equal values may be shown once. Where no end group is shown, it is not given here. [ ]: non-standard residue; d: D form. Oic = O=C(O)[C@@H]1C[C@@H]2CCCC[C@@H]2N1; Hyp = O=C(O)[C@@H]1C[C@@H](O)CN1; dTic = O=C(O)[C@H]1Cc2ccccc2CN1; 2Thi = N[C@@H](Cc1cccs1)C(=O)O

What was measured:
[1] = target: T1, bradykinin type 2 (BK2) receptors (Rattus norvegicus, UniProt P25023); assay: standard rat uterus pA2 assay (in vitro B2 antagonist activity); settings: for % Recovery: recovery of agonist response after washing 40 minutes following highest antagonist concentration; for activity in rat uterus functional tissue assay: summary of Table 1; for B2 pA2 (Rat Uterus): antagonist preincubated for 15 minutes
T1 construct: Uterine horns were removed, placed under a 1 g resting tension in 4 mL tissue baths; from tissue; host or cells: rat uterine horns (Sprague-Dawley, stilbesterol-pretreated)
T1 sequence (P25023 1-396): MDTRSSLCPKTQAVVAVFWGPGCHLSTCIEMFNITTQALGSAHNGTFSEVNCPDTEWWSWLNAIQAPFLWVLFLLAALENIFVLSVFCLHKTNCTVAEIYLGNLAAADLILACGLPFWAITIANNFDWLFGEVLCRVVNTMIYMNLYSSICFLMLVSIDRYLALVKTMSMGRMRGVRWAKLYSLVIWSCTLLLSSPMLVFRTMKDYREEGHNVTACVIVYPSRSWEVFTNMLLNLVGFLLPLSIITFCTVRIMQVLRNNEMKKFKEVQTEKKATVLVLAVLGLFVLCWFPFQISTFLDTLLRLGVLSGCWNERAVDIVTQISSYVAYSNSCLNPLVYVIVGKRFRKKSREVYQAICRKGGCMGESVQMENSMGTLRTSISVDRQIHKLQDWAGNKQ
Procedure: The standard rat uterus pA2 assay was conducted as follows:
Female Sprague-Dawley rats (200-250 g) were pretreated with stilbesterol (100 μg/kg) and killed 18 hours later by a blow on the head and exsanguinated. Uterine horns were removed, placed under a 1 g resting tension in 4 mL tissue baths containing De Jalon's solution at 31° C. and aerated. […] Antagonist potency was calculated according to the method of Arunlakshana and Schild (Arunlakshana, O., Schild, H. O., Br. J. Pharmacology 14 48-58 (1959)). […] The difference in pD2 values compared to concurrent control reflected the "percentage recovery" of agonist response.

BK2 receptors = target: T2, BK2 receptors (Oryctolagus cuniculus, UniProt Q28642); assay: rabbit blood pressure BK2 ED50; format: in vivo
T2 construct: from tissue; host or cells: live anesthetized New Zealand White rabbit (vascular system)
T2 sequence (Q28642 1-367): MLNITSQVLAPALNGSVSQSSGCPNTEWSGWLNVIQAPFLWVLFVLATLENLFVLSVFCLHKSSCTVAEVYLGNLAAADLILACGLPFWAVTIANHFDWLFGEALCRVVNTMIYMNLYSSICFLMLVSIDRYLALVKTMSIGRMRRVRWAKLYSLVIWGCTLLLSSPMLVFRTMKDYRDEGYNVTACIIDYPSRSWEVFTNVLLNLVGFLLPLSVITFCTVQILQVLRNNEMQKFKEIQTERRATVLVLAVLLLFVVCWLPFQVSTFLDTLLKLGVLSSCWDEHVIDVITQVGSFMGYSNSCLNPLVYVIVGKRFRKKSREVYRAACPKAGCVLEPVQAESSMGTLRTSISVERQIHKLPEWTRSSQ
Source text: (§1) Male New Zealand White rabbits were anesthetized with pentobarbital and femoral arteries were cannulated for the recording of blood pressure. Cannulae were placed in the femoral veins for the bolus injection or continuous infusion of compounds. […] Following an equilibration period the specific experimental procedure was started.

BK1 receptors = target: T3, BK1 receptors (Oryctolagus cuniculus, UniProt P48748); assay: LPS-treated rabbit blood pressure BK1 ED50; format: in vivo; settings: for BK1 ED50: LPS-treated rabbit, i.v. infusion
T3 construct: upregulation of BK1 receptors in the vascular system; from tissue; host or cells: live anesthetized LPS-pretreated New Zealand White rabbit (vascular system)
T3 sequence (P48748 1-352): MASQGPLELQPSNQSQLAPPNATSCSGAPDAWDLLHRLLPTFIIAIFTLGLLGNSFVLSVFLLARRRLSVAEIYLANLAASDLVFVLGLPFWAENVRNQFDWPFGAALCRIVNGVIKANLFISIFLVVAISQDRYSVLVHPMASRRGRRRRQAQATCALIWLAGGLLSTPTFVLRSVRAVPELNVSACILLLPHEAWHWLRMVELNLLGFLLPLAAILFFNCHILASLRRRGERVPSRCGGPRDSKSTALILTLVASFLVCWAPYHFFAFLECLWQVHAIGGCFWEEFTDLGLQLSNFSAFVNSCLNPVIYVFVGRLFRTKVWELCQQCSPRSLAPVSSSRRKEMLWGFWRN
Procedure: as §1
Stimulation of both pre-existing BK2 and induced BK1, receptors produces hypotension. […] Both agonists were tested in the absence and then in the presence of increasing doses of CP-0597 (1, 3, and 10 μg/kg/min).

[2] = tested on: blood pressure responses to vasoactive agents; assay: selectivity of intravenous CP-0597, rabbit blood pressure; format: in vivo; settings: 0.1 μg/kg/min i.v.; for responses to the other vasoactive agents after antagonist: acetylcholine, norepinephrine, substance p, angiotensin, angiotensin II
Source text: as §1

response to Bradykinin [3] = assay: duration of action of intravenously infused CP-0597, rabbit blood pressure; format: in vivo; settings: one hour (60 min) after 0.1 μg/kg/min infusion stopped
Procedure: as §1
CP-0597 (0.1 μg/kg/min) was intravenously infused for the above mentioned selectivity experiments.

[4] = tested on: blood pressure responses to vasoactive agents; assay: selectivity of subcutaneous CP-0597, rat blood pressure; format: in vivo; settings: 1.0 mg/kg s.c., thirty minutes after injection
Procedure: (§2) Male Sprague-Dawley rats were anesthetized with pentobarbital and femoral arteries were cannulated for the recording of blood pressure. Both femoral veins in each animal were cannulated for the administration of test compounds. […] Following an equilibration period the specific experimental procedure was started.
Animals were then treated with CP-0597 (1.0 mg/kg s.c.). Thirty minutes after the s.c. injection each vasoactive agent was retested and compared to pre-antagonist responses.

response to Bradykinin [5] = assay: duration of action of i.v. bolus injections of CP-0597, rat blood pressure; format: in vivo
Procedure: as §2
At 3 μg/kg the response was ca. 50% inhibited and had returned to control by 30 minutes. At […] and 30 μg/kg the response was 100% inhibited with a 50% return to control level by 60 minutes and full recovery of response by 90 minutes.

response to Bradykinin [6] = assay: duration of action of subcutaneous CP-0597, rat blood pressure; format: in vivo; settings: for inhibition of responses to Bradykinin, duration of action (s.c.): rat
Procedure: as §2
Animals were then given subcutaneous injections of CP-0597 (1 and 3 mg/kg s.c.). […] At 1 mg/kg s.c. the responses were still 100% inhibited at 3 hours post injection. At 3 mg/kg s.c. the responses were still 100% inhibited at 5 hours post injection.

guinea pig ileum = assay: activity on guinea pig ileum tissue
[7] = target: T4, bradykinin type 1 (BK1) receptors (Oryctolagus cuniculus, UniProt P48748); assay: rabbit aorta in vitro B1 antagonist activity; settings: reversal of des-Arg9-bradykinin contraction of rabbit aorta strips
T4 construct: Spiral strips were mounted under 2 g resting tension in 5 mL tissue baths; from tissue; host or cells: rabbit thoracic aorta spiral strips (New Zealand White)
T4 sequence (P48748 1-352): T3 sequence (P48748 1-352)
Procedure: Female New Zealand White rabbits were killed by overdose of pentobarbital (80 mg/kg i.v.) and the thoracic aorta removed. […] Two concentration-effect curves for des-Arg^9 -bradykinin were constructed at 1 and 3 hours. At five hours des-Arg^9 -bradykinin was added to the bath to a final concentration of […]. This produced stable, sustained and prolonged contractions of up to 45 minutes.

[8] = target: T5, bradykinin type 2 (BK2) receptors (Cavia porcellus, UniProt O70526); assay: antagonist binding to guinea pig ileum (tritium labeled bradykinin)
T5 construct: from tissue; host or cells: guinea pig ileum membrane preparation (Hartley strain)
T5 sequence (O70526 1-372): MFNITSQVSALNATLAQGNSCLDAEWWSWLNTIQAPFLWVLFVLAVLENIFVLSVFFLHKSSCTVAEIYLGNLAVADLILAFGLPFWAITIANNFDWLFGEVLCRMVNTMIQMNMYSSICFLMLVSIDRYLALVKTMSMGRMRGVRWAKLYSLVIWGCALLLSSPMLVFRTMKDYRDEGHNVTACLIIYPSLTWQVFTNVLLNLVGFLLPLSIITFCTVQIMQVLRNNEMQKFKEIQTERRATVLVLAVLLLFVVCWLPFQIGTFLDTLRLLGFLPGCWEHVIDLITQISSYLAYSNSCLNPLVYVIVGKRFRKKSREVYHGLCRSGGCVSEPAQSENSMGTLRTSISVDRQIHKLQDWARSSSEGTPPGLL
Procedure: Radioactivity was determined by liquid scintillation counting.

[9] = stability in porcine kidney cortical membranes; format: in vitro ADME; settings: pig, pH 7.2, porcine kidney preparation
Procedure: (§3) Rat or porcine lung and kidney cortical membranes were prepared using differential centrifugation as described by Skidgel (Booth, A. G. et al., Biochemical Journal 142, 575-581 (1974)) for lung or by Booth (Erdos, E. G. et al., Biochemical Pharmacology 33 3471-3478 (1984)) for kidney. Membrane preparations were stored at -20° C. […] Ten microliters of this working solution were delivered into a series of Eppendorf tubes, followed by human or guinea pig plasma (90 μL) or PBS as a control blank, and incubated for various time periods. At each time point the reaction was quenched with the addition of 100 μL 1N HCl in either acetonitrile or ethanol. Samples were allowed to stand approximately fifteen minutes and were then spun at 14,000 rpm for 10 minutes. Supernatant fractions were removed, filtered through 0.22 μM filters (Millipore) and analyzed by HPLC (C18, 12-80% acetonitrile in water, both containing 0.1% trifluoroacetic acid, monitoring at 214 nm.
(§4) Porcine kidney lung preparations were diluted 1:10 with PBS; rat kidney preparations were diluted 1:100 with PBS; porcine lung preparations were diluted 1:1 in PBS. […] At various time points the reactions were quenched by the addition of 100 μL of ethanol, centrifuged and analyzed by HPLC as described above. The half-life for the disappearance of the HPLC peak was determined using the computer program ENZFIT (Elsevier).

in vitro = settings: pig, lung membranes, pH 7.2
Procedure: as §3, §4

[10] = i.v. bolus 10 μg/kg (text: 20%; Table 3: 10 μg/kg/min)
[11] = i.v. bolus 30 μg/kg (Table 3: 30 μg/kg/min)

D-Arg-Arg-Hyp-Hyp-Gly-Thi-Ser-D-Tic-NChg-Arg [Compound 17]
% Recovery [1]: 60%
activity in rat uterus functional tissue assay [1]: highly potent antagonists

D-Arg-Arg-Pro-Hyp-Gly-Thi-Ser-D-Cpg-NChg-Arg [Compound 10]
% Recovery [1]: 75%

D-Arg-Arg-Pro-Hyp-Gly-Thi-Ser-D-NBng-NChg-Arg [Compound 7]
B2 pA2 (Rat Uterus) [1]: Agonist
activity in rat uterus functional tissue assay [1]: agonists

D-Arg-Arg-Pro-Hyp-Gly-Thi-Ser-D-NBng-Oic-Arg [Compound 6]
% Recovery [1]: 93%

D-Arg-Arg-Pro-Hyp-Gly-Thi-Ser-D-Phe-NChg-Arg [Compound 9]
% Recovery [1]: 87%

D-Arg-Arg-Pro-Hyp-Gly-Thi-Ser-D-Phe-NPhg-Arg [Compound 16]
% Recovery [1]: 60%

D-Arg-Arg-Pro-Hyp-Gly-Thi-Ser-D-Tic-NChg-Arg [Compound 5]
% Recovery [1]: 71%
activity in rat uterus functional tissue assay [1]: highly potent antagonists
ED50 blocking bradykinin at BK2 receptors in live rabbits (BK2 receptors): 0.051 µg/kg/min
BK2 ED50 (BK2 receptors; i.v. infusion): 29.2 pmol/kg/min
BK1 ED50 (BK1 receptors): 1.7 nmol/kg/min
BK1 ED50 (BK1 receptors; des-Arg9 Bradykinin, listed as CP-0597): 2.9 ± 0.92 µg/kg/min and 2.9 µg/kg/min
BK1 blocking activity in live rabbits (BK1 receptors; rabbit): 2.9 µg/kg/min
response to Bradykinin after antagonist [2]: antagonized
responses to the other vasoactive agents after antagonist [2]: not affected
responses to the other vasoactive agents after antagonist ([2]; listed as CP-0597): unaffected
inhibition of the response to Bradykinin, duration of action (i.v. infusion) (response to Bradykinin [3]): 100%
response to Bradykinin after antagonist [4]: antagonized
responses to the other vasoactive agents after antagonist ([4]; 1 mg/kg): not affected
responses to the other vasoactive agents after antagonist ([4]; listed as CP-0597, 1 mg/kg): unaffected
time of return to control (100% recovery) (response to Bradykinin [5]; i.v. bolus 3 μg/kg (Table 3: 3.0 μg/kg/min)): ≤ 30 min
inhibition of response to Bradykinin (response to Bradykinin [5]; [10]): 100%
time of 50% recovery (response to Bradykinin [5]; [10]): ≤ 60 min
time of 100% recovery (response to Bradykinin [5]; [10]): ≤ 90 min
inhibition of response to Bradykinin (response to Bradykinin [5]; [11]): 100%
time of 50% recovery (response to Bradykinin [5]; [11]): ≤ 60 min
time of 100% recovery (response to Bradykinin [5]; [11]): ≤ 90 min
inhibition of responses to Bradykinin, duration of action (s.c.) (response to Bradykinin [6]; 1 mg/kg s.c., 3 hours post injection): 100%
inhibition of responses to Bradykinin, duration of action (s.c.) (response to Bradykinin [6]; 3 mg/kg s.c., 5 hours post injection): 100%
blockage of agonist effect (response to Bradykinin [6]; up to 5 hours after a subcutaneous dose (3 mg/Kg, rat)): complete blockage

D-Arg-Arg-Pro-Hyp-Gly-Thi-Ser-D-Tic-NCpg-Arg [Compound 8]
% Recovery [1]: 56%
activity in rat uterus functional tissue assay [1]: highly potent antagonists

D-Arg-Arg-Pro-Hyp-Gly-Thi-Ser-D-Tic-NMch-Arg [Compound 12]
B2 pA2 (Rat Uterus) [1]: Agonist
activity in rat uterus functional tissue assay [1]: agonists
activity on guinea pig ileum (guinea pig ileum): antagonist activity

D-Arg-Arg-Pro-Hyp-Gly-Thi-Ser-D-Tic-NPhg-Arg [Compound 15]
% Recovery [1]: 54%
activity in rat uterus functional tissue assay [1]: highly potent antagonists

D-Arg-Arg-Pro-Hyp-Gly-Thi-Ser-D-Tic-Oic-Arg [HOE-140, reference compound]
% Recovery [1]: 41%
B1 (Rabbit Aorta) [7]: Inactive

D-Arg-Arg-Pro-Hyp-Gly-Thi-Ser-DTic-NChg [Compound 2]
% Recovery [1]: 0%

D-Arg-Arg-Pro-Hyp-Gly-Thi-Ser-Igl*-NChg-Arg [Compound 3]
% Recovery [1]: 100%

D-Arg-Arg-Pro-Hyp-Gly-Thi-Ser-Igl*-NChg-Arg [Compound 4]
B2 pA2 (Rat Uterus) [1]: Agonist
activity in rat uterus functional tissue assay [1]: agonists

D-Arg-Arg-Pro-Hyp-Gly-Thi-Ser-NBng-Oic [Compound 1]
% Recovery [1]: 32%

D-Arg-Arg-Pro-Hyp-Gly-Thi-Ser-NPeg-Oic-Arg [Compound 11]
B2 pA2 (Rat Uterus) [1]: Agonist
activity in rat uterus functional tissue assay [1]: agonists

RPPGFSPFR [Bradykinin, Arg^1 -Pro^2 -Pro^3 -Gly^4 -Phe^5 -Ser^6 -Pro^7 -Phe^8 -Arg^9]
Ki [8]: 0.0301 nM
half-life at 100 µM [9]: 3 min
half-life at 100 µM (in vitro): 3 min

[dR]RP[Hyp]GGS[dTic][Oic]R [CP-0601, reference compound]
% Recovery [1]: 75%

[dR]RP[Hyp][2Thi]GS[dTic][Oic]R [CP-0589, reference compound]
% Recovery [1]: 57%

δ-Gpa-Arg-Pro-Hyp-Gly-Thi-Ser-D-Tic-NChg-Arg [Compound 13]
% Recovery [1]: 66%
activity in rat uterus functional tissue assay [1]: highly potent antagonists

δ-Gpa-Pro-Hyp-Gly-Thi-Ser-D-Tic-NChg-Arg [Compound 14]
% Recovery [1]: 81%
